Source: patent EP4692094A1 (Beijing Konruns Pharmaceutical Co., Ltd., priority 2023, dated 2024)

Tests used:
[1] = target: T1, KAT6A (Homo sapiens, UniProt Q92794); assay: Enzymatic activity assay for KAT6A acetyltransferase (TR-FRET, acetylation of histone substrate H3); format: biochemical
T1 construct: purchased active motife (Active Motif) 81223
Method: The acetylation effect of KAT6A on histone substrate H3 was determined using the TR-FRET (time-resolved fluorescence resonance energy transfer) method.
• 1) The compounds prepared in the examples of the present disclosure were each dissolved in dimethylsulfoxide to give solutions at a concentration of 10 mmol/L, and then the solutions were diluted to 0.2 mmol/L, i.e., 1 µL of the compound was added to 49 µL of DMSO, and 3-fold dilution was performed to give 10 concentrations. • 2) 50 nL of the test compounds (example compounds) were transferred to 384 reaction plates using Echo, two replicates for each compound, and the plates were centrifuged at a rotation speed of 1000 rpm for 1 min, the final concentration of dimethylsulfoxide (DMSO) being 0.5%. • 3) 2.5 µL of the reaction mixtures obtained in step 2 was added to the 384 reaction plates in step 2), and the plates were centrifuged at 1000 rpm for 1 min and incubated at 25 °C for 10 min. • 4) 2.5 µL of Bio-H3&AcCOA (acetyl-CoA) reaction solution was added to the 384 reaction plates in step 3), and the plates were centrifuged at a rotation speed of 1000 rpm for 1 min and incubated at 25 °C for 90 min. • 5) 5 µL of Eu-Ab& Ulight-SA detection solution was added to the 384 reaction plates in step 4), and the plates were centrifuged at 1000 rpm for 1 min and incubated at 25 °C for 60 min. • 6) The HTRF […] signals were read using a BMG high-throughput drug-screening multi-mode microplate reader.
The acetylation level of the histone H3 was analyzed by the GraphPad Prism 8 software. The reading of the negative control (0.5% DMSO wells) was set as 0% inhibition rate, and the reading of the positive control (wells with the highest concentration of the control compound) was set as 100% inhibition rate. The inhibition rates were calculated, and then IC50 values (half maximal inhibitory concentration) of test compounds were obtained by using a software nonlinear fitting formula; [formula]
Datapositive control: mean of positive control well values; Datanegative control: mean of negative control well values. Table 3. Enzymatic inhibitory activity of example compounds

[2] = In-vivo pharmacokinetic study in rats; parameters: species or system SD female rats; settings: female, SD, rat, plasma, po, 5 mg/kg, intragastric administration; for AUC(0-t): read-out: AUC0-24h
Method: 1.1 Instrument: high-performance liquid chromatograph: SHIMADZU LC-30AD; mass spectrum: AB SCIEX mass spectrometer Triple Quad 5500; all measured data were calculated and processed using Microsoft Excel, and relevant pharmacokinetic parameters were calculated using WinNonlin software. The main obtained kinetic parameters are Tmax, T1/2, Cmax, AUC0-24 h, and AUCinf. […] Sample injection amount: 1 µL.
1.2 Animals: three SD female rats were used. The body weight range was 180-300 g. After purchase, the rats were bred in the experimental animal center for two days for later use. The rats were fasted 12 h before administration and 4 h after administration, and given ad libitum access to water during the assay. Blood samples were taken at predetermined time points after intragastric administration.
1.3 Vehicle: 0.5% HPMC (hydroxypropyl methylcellulose) + 0.4% Tween80 + 99.1% water. Preparation of intragastric administration solution: The compound was precisely weighed, the vehicle was added, and then the drug was completely dissolved by ultrasonication at room temperature for 5 min and prepared into a 0.5 mg/mL solution. After the intragastric administration, blood samples were taken at 0.083 h, 0.25 h, 0.5 h, 1.0 h, 2.0 h, 4.0 h, 7.0 h, and 24 h. The blood collection mode is as follows: 0.2 mL of the jugular vein blood was collected, EDTA-K2 was used as an anticoagulation agent, the collected blood sample was transferred into a microcentrifuge tube containing the anticoagulation agent, and the tube was centrifuged at 4 °C and 4000 g for 5 min to separate the plasma. All plasma samples collected were stored at -75±15 °C until analysis.
The compound was precisely weighed and prepared into a standard curve working solution and a quality control working solution at different concentrations. The blank plasma was added and prepared into a plasma standard curve and a quality control sample. LC/MS/MS analysis was performed after pretreatment using a protein precipitation method, and then the concentration of the compounds described above in the plasma was measured. All measured data were collected and processed by the relevant software, and pharmacokinetic parameters were calculated using Winnonlin software. Table 9. Pharmacokinetic parameters of some compounds in the examples in rats

T1 sequence (Q92794 whole entry): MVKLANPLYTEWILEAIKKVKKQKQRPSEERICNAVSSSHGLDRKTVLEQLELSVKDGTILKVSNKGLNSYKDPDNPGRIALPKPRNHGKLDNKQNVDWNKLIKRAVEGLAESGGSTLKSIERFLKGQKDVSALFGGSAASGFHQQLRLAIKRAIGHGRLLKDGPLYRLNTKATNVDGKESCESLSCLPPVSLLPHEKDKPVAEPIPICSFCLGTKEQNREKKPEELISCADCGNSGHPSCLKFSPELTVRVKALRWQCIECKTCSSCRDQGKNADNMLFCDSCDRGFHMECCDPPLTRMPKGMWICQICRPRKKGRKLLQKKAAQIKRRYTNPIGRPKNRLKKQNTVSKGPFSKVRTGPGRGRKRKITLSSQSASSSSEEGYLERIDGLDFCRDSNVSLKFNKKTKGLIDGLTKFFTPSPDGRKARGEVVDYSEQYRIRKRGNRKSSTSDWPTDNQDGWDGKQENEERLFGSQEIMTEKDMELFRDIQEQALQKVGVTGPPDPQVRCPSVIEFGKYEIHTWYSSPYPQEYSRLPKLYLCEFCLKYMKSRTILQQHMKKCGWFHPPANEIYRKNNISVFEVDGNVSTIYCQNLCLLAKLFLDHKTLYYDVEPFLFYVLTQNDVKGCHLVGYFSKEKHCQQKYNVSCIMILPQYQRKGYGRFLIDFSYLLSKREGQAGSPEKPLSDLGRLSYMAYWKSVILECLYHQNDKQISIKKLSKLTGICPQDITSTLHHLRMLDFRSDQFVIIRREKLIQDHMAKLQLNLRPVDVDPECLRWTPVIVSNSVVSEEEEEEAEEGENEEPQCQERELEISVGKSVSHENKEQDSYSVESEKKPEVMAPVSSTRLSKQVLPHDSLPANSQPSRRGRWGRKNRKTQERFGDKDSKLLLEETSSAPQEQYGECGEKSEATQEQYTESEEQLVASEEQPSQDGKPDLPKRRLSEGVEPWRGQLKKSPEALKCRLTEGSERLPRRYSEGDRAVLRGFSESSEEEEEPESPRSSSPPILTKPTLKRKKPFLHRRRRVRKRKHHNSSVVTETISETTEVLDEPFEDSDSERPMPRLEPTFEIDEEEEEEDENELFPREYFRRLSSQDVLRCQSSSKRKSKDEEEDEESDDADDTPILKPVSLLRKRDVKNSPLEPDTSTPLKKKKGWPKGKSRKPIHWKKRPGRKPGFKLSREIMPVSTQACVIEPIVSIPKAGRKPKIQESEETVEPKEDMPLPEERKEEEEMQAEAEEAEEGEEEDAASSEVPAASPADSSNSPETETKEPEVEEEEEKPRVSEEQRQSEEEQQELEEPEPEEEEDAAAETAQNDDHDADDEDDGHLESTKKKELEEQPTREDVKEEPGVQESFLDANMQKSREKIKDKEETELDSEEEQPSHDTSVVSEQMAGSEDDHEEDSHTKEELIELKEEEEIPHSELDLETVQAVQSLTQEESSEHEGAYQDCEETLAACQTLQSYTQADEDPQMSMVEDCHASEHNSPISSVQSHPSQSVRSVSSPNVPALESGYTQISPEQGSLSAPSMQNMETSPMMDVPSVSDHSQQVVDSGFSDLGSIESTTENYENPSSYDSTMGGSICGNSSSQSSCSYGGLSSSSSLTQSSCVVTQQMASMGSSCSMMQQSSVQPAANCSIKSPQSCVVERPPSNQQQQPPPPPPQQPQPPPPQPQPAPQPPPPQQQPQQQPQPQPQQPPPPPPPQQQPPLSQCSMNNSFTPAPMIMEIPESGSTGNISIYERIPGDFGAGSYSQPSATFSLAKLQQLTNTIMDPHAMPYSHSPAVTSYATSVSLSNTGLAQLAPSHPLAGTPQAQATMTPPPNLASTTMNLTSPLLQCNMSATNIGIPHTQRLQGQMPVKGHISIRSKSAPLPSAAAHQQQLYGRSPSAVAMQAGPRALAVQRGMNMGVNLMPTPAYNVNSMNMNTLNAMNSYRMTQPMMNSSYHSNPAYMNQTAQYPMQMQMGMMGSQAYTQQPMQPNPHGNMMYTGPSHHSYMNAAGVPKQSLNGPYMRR

Structure (SMILES)	IC50 [1] [nM]	other results
COc1cc2c(c(OC)c1S(=O)(=O)Nc1noc3cc(Cn4cccn4)nc(OC)c13)CCC2 [Example 62, N-(6-((1H-Pyrazol-1-yl)methyl)-4-methoxyisoxazolo[4,5-c]pyridin-3-yl)-4,6-dimethoxy-2,3-dihydro-1H-indene-5-sulfonamide]	0.84	half-life [2]: ≤ 600 min; AUC(0-inf) [2]: 450 µg·h/mL; Cmax [2]: 25600 ng/mL; Tmax [2]: 1.17 h; AUC(0-t) [2]: 356 µg·h/mL
COc1ccc2cccnc2c1S(=O)(=O)Nc1noc2cc(Cn3cccn3)nc(OC)c12 [Example 11, N-(6-((1H-Pyrazol-1-yl)methyl)-4-methoxyisoxazolo[4,5-c]pyridin-3-yl)-7-methoxyquinoline-8-sulfonamide]	0.77	AUC(0-inf) [2]: 32 µg·h/mL; Cmax [2]: 3310 ng/mL; Tmax [2]: 0.83 h; AUC(0-t) [2]: 32 µg·h/mL
COc1cc2c(cc1S(=O)(=O)Nc1noc3cc(Cn4nccn4)nc(OC)c13)CCCC2 [Example 34, N-(6-((2H-1,2,3-Triazol-2-yl)methyl)-4-methoxyisoxazolo[4,5-c]pyridin-3-yl)-3-methoxy-5,6,7,8-tetrahydronaphthalene-2-sulfonamide]	12.6	
COc1c(Cl)c2c(c(OC)c1S(=O)(=O)Nc1noc3cc(Cn4cccn4)nc(OC)c13)CCC2 [Example 63, N-(6-((1H-Pyrazol-1-yl)methyl)-4-methoxyisoxazolo[4,5-c]pyridin-3-yl)-7-chloro-4,6-dimethoxy-2,3-dihydro-1H-indene-5-sulfonamide]	5.98	
COc1nc(Cn2cccn2)cc2onc(NS(=O)(=O)c3ccc4ncsc4c3)c12 [Example 55, N-(6-((1H-Pyrazol-1-yl)methyl)-4-methoxyisoxazolo[4,5-c]pyridin-3-yl)benzothiazole-6-sulfonamide]	8.79	
COc1ccc2ccoc2c1S(=O)(=O)Nc1noc2cc(Cn3cc(C)cn3)nc(OC)c12 [Example 83, 6-Methoxy-N-(4-methoxy-6-((4-methyl-1H-pyrazol-1-yl)methyl)isoxazolo[4,5-c]pyridin-3-yl)benzofuran-7-sulfonamide]	4.12	
COc1ccc2c(c1S(=O)(=O)Nc1noc3cc(Cn4cccn4)nc(OC)c13)OC(C)(C)O2 [Example 74, N-(6-((1H-Pyrazol-1-yl)methyl)-4-methoxyisoxazolo[4,5-c]pyridin-3-yl)-5-methoxy-2,2-dimethyl-1,3-benzodioxolane-4-sulfonamide]	1.77	
COc1ccc2c(c1S(=O)(=O)Nc1noc3cc(Cn4cccn4)nc(OC)c13)OC(C)C2 (stereo not drawn) [Example 66, N-(6-((1H-Pyrazol-1-yl)methyl)-4-methoxyisoxazolo[4,5-c]pyridin-3-yl)-6-methoxy-2-methyl-2,3-dihvdrobenzofuran-7-sulfonamide]	1.22	
COc1cc2c(c(S(=O)(=O)Nc3noc4cc(Cn5cccn5)nc(OC)c34)c1)OC(C)(C)CC2 [Example 99]	2.79	
COc1nc(Cn2nccn2)cc2onc(NS(=O)(=O)c3cccc4c3ccn4C)c12 [Example 21, N-(6-((2H-1,2,3-Triazol-2-yl)methyl)-4-methoxyisoxazolo[4,5-c]pyridin-3-yl)-1-methyl-1H-indole-4-sulfonamide]	75.9	
COc1ccc2cc(C)oc2c1S(=O)(=O)Nc1noc2cc(Cn3cccn3)nc(OC)c12 [Example 65, N-(6-((1H-Pyrazol-1-yl)methyl)-4-methoxyisoxazolo[4,5-c]pyridin-3-yl)-6-methoxy-2-methylbenzofuran-7-sulfonamide]	2.01	
COc1ccc2c(c1S(=O)(=O)Nc1noc3cc(Cn4cccn4)nc(OC)c13)OC(C)(C)C2 [Example 100, N-(6-((1H-pyrazol-1-yl)methyl)-4-methoxyisoxazolo[4,5-c]pyridin-3-yl)-6-methoxy-2,2-dimethyl-3H-benzofuran-7-sulfonamide]	1.06	

Now from value to compound, other results behind:

IC50 [1] [nM]	Structure (SMILES)	other results
34.7	COc1nc(Cc2ccccn2)cc2onc(NS(=O)(=O)c3cccc4c3OCCO4)c12 [Example 32, N-(4-Methoxy-6-(pyridin-2-ylmethyl)isoxazolo[4,5-c]pyridin-3-yl)-2,3-dihydrobenzo[b][1,4]dioxine-5-sulfonamide]	
8.85	COc1ccc(S(=O)(=O)Nc2noc3cc(Cn4cccn4)nc(OC)c23)c2occc12 [Example 64, N-(6-((1H-Pyrazol-1-yl)methyl)-4-methoxyisoxazolo[4,5-c]pyridin-3-yl)-4-methoxybenzofuran-7-sulfonamide]	
2.67	COc1c(S(=O)(=O)Nc2noc3cc(Cn4cccn4)nc(OC)c23)ccc2c1OCO2 [Example 87, N-(6-((1H-Pyrazol-1-yl)methyl)-4-methoxyisoxazolo[4,5-c]pyridin-3-yl)-4-methoxy-1,3-benzodioxole-5-sulfonamide]	
5.68	COc1nc(Cn2cccn2)cc2onc(NS(=O)(=O)c3cccc4c3OCCC4)c12 [Example 7, N-(6-((1H-Pyrazol-1-yl)methyl)-4-methoxyisoxazolo[4,5-c]pyridin-3-yl)-3,4-dihydro-1H-benzopyran-8-sulfonamide]	
17.6	COc1cc2c(cc1S(=O)(=O)Nc1noc3cc(C(F)(F)n4cccn4)nc(OC)c13)CCCC2 [Example 91, N-(6-(Difluoro(1H-pyrazol-1-yl)methyl)-4-methoxyisoxazolo[4,5-c]pyridin-3-yl)-3-methoxy-5,6,7,8-tetrahydronaphthalene-2-sulfonamide]	
0.66	COc1ccc2c(c1S(=O)(=O)Nc1noc3cc(Cn4cccn4)nc(OC)c13)OCO2 [Example 58, N-(6-((1H-Pyrazol-1-yl)methyl)-4-methoxyisoxazolo[4,5-c]pyridin-3-yl)-5-methoxy-1,3-benzodioxole-4-sulfonamide]	
0.85	COc1cc2c(cc1S(=O)(=O)Nc1noc3cc(Cn4cccn4)nc(OC)c13)CCC2 [Example 70, N-(6-((1H-Pyrazol-1-yl)methyl)-4-methoxyisoxazolo[4,5-c]pyridin-3-yl)-6-methoxy-2,3-dihydro-1H-indene-5-sulfonamide]	
1.63	COc1ccc(S(=O)(=O)Nc2noc3cc(Cn4cccn4)nc(OC)c23)c2c1CCCO2 [Example 95, N-(6-((1H-Pyrazol-1-yl)methyl)-4-methoxyisoxazolo[4,5-c]pyridin-3-yl)-5-methoxy-3,4-dihydro-1H-benzopyran-8-sulfonamide]	
4.56	COc1nc(Cn2cccn2)cc2onc(NS(=O)(=O)c3ccc4occc4c3)c12 [Example 53, N-(6-((1H-Pyrazol-1-yl)methyl)-4-methoxyisoxazolo[4,5-c]pyridin-3-yl)benzofuran-5-sulfonamide]	
1.67	COc1nc(Cn2cccn2)cc2onc(NS(=O)(=O)c3cccc4cccnc34)c12 [Example 46]	
16.8	COc1nc(Cn2cccn2)cc2onc(NS(=O)(=O)c3ccc4c(c3)OC(F)(F)O4)c12 [Example 89, N-(6-((1H-Pyrazol-1-yl)methyl)-4-methoxyisoxazolo[4,5-c]pyridin-3-yl)-2,2-difluoro-1,3-benzodioxole-5-sulfonamide]	
8.67	COc1nc(C(F)(F)n2cccn2)cc2onc(NS(=O)(=O)c3cccc4c3OCC4)c12 [Example 17, N-(6-(Difluoro(1H-pyrazol-1-yl)methyl)-4-methoxyisoxazolo[4,5-c]pyridin-3-yl)-2,3-dihydrobenzofuran-7-sulfonamide]	
